Measurements taken from US7087642B2 (priority 1999, dated 2006).
Where two headings read alike, the source gives them in different places.

Experiments:
[1] = tested on: human PBMC T cells; assay: cells; type: cell-based; conditions: read-out: T-cells (IC50)
[2] = target: IMPDH human type II (Homo sapiens, UniProt P12268); assay: biochemical
[3] = tested on: human PBMC B cells; assay: cells; type: cell-based; conditions: read-out: B-cells (IC50)

CCC(OC(=O)NCc1cccc(NC(=O)Nc2ccc(-c3cnco3)c(OC)c2)c1)C(C)(C)C#N (stereo not drawn) [Compound 100]
IC50 ([1]; Homo sapiens, 72 h): 100 to 1000 nM
Ki ([2]; read-out: Ki): 10 to 50 nM
IC50 ([3]; Homo sapiens, 72 h): 100 to 1000 nM

COc1cc(NC(=O)Nc2cccc(CNC(=O)OC3COCC3OCC#N)c2)ccc1-c1cnco1 (stereo not drawn) [Compound 75]
IC50 ([1]; Homo sapiens, 72 h): 100 to 1000 nM
Ki ([2]; read-out: Ki): < 10 nM
IC50 ([3]; Homo sapiens, 72 h): 100 to 1000 nM

CC[C@H](CC#N)OC(=O)N[C@@H](C)c1cccc(NC(=O)Nc2ccc(C#N)c(OC)c2)c1 [Compound 169]
IC50 ([1]; Homo sapiens, 72 h): < 100 nM
Ki [2]: < 10 nM
IC50 ([3]; Homo sapiens, 72 h): < 100 nM

COc1cc(NC(=O)Nc2cccc(CNC(=O)O[C@H](CCN(C)C)c3ccccc3)c2)ccc1-c1cnco1 [Compound 39]
IC50 [1]: 100 to 1000 nM
Ki ([2]; read-out: Ki): < 10 nM
IC50 [3]: 100 to 1000 nM

CCC(CCN1CCOCC1)OC(=O)NCc1cccc(NC(=O)Nc2ccc(-c3cnco3)c(OC)c2)c1 (stereo not drawn) [Compound 65]
IC50 ([1]; Homo sapiens, 72 h): 100 to 1000 nM
Ki ([2]; read-out: Ki): < 10 nM
IC50 ([3]; Homo sapiens, 72 h): 100 to 1000 nM

COc1cc(NC(=O)Nc2cccc(CNC(=O)OC(C)CC#N)c2)ccc1-c1cnco1 (stereo not drawn) [Compound 26]
IC50 ([1]; Homo sapiens, 72 h): < 100 nM
Ki ([2]; read-out: Ki): < 10 nM
IC50 ([3]; Homo sapiens, 72 h): < 100 nM

CCN(CC)C[C@@H](CC#N)OC(=O)NCc1cccc(NC(=O)Nc2ccc(-c3cnco3)c(OC)c2)c1 [Compound 16]
IC50 [1]: > 1000 nM
Ki ([2]; read-out: Ki): < 10 nM
IC50 [3]: > 1000 nM

COc1cc(NC(=O)Nc2cccc(CNC(=O)O[C@@H](CO)CCC#N)c2)ccc1-c1cnco1 [Compound 57]
IC50 ([1]; Homo sapiens, 72 h): 100 to 1000 nM
Ki ([2]; read-out: Ki): < 10 nM
IC50 ([3]; Homo sapiens, 72 h): 100 to 1000 nM

COc1cc(NC(=O)Nc2cccc(CNC(=O)OC3COCC3OCC(=O)OC(C)(C)C)c2)ccc1-c1cnco1 (stereo not drawn) [Compound 72]
IC50 [1]: 100 to 1000 nM
Ki ([2]; read-out: Ki): < 10 nM
IC50 [3]: 100 to 1000 nM

CCC(CC#N)OC(=O)N[C@@H](C)c1cccc(NC(=O)Nc2ccc(-c3cnco3)c(OC)c2)c1 (stereo partly drawn) [Compound 181]
IC50 ([1]; Homo sapiens, 72 h): < 100 nM
Ki ([2]; read-out: Ki): < 10 nM
IC50 ([3]; Homo sapiens, 72 h): < 100 nM

CCC(CN1CC[S+]([O-])CC1)OC(=O)NCc1cccc(NC(=O)Nc2ccc(-c3cnco3)c(OC)c2)c1 (stereo not drawn) [Compound 84]
IC50 ([1]; Homo sapiens, 72 h): 100 to 1000 nM
Ki ([2]; read-out: Ki): 10 to 50 nM
IC50 ([3]; Homo sapiens, 72 h): 100 to 1000 nM

COc1cc(NC(=O)Nc2cccc(CNC(=O)O[C@H](C)CC#N)c2)ccc1-c1cnco1 [Compound 29]
IC50 [1]: < 100 nM
Ki ([2]; read-out: Ki): < 10 nM
IC50 [3]: < 100 nM

CCC(COC)OC(=O)NCc1cccc(NC(=O)Nc2ccc(-c3cnco3)c(OC)c2)c1 (stereo not drawn) [Compound 42]
IC50 ([1]; Homo sapiens, 72 h): 100 to 1000 nM
Ki ([2]; read-out: Ki): < 10 nM
IC50 ([3]; Homo sapiens, 72 h): 100 to 1000 nM

CCN(CC)CCC(OC(=O)NCc1cccc(NC(=O)Nc2ccc(-c3cnco3)c(OC)c2)c1)C(F)(F)F (stereo not drawn) [Compound 37]
IC50 ([1]; Homo sapiens, 72 h): 100 to 1000 nM
Ki ([2]; read-out: Ki): < 10 nM
IC50 ([3]; Homo sapiens, 72 h): 100 to 1000 nM

CCC(CCCO)OC(=O)NCc1cccc(NC(=O)Nc2ccc(-c3cnco3)c(OC)c2)c1 (stereo not drawn) [Compound 44]
IC50 ([1]; Homo sapiens, 72 h): 100 to 1000 nM
Ki ([2]; read-out: Ki): < 10 nM
IC50 ([3]; Homo sapiens, 72 h): 100 to 1000 nM

COc1cc(NC(=O)Nc2cccc(CNC(=O)OCCC#N)c2)ccc1-c1cnco1 [Compound 1]
IC50 ([1]; Homo sapiens, 72 h): 100 to 1000 nM
Ki ([2]; read-out: Ki): < 10 nM
IC50 ([3]; Homo sapiens, 72 h): < 100 nM

COc1cc(NC(=O)Nc2cccc(CNC(=O)OC(CCC#N)C(F)(F)F)c2)ccc1-c1cnco1 (stereo not drawn) [Compound 90]
IC50 ([1]; Homo sapiens, 72 h): 100 to 1000 nM
Ki ([2]; read-out: Ki): < 10 nM
IC50 ([3]; Homo sapiens, 72 h): 100 to 1000 nM

COc1cc(NC(=O)Nc2cccc(CNC(=O)O[C@@H](CC#N)CN3CCOCC3)c2)ccc1-c1cnco1 [Compound 20]
IC50 [1]: 100 to 1000 nM
Ki ([2]; read-out: Ki): < 10 nM
IC50 [3]: 100 to 1000 nM

COc1cc(NC(=O)Nc2cccc(CNC(=O)OCC(OCc3ccco3)N(CCC#N)CC(C)C)c2)ccc1-c1cnco1 (stereo not drawn) [Compound 4]
IC50 ([1]; Homo sapiens, 72 h): > 1000 nM
Ki ([2]; read-out: Ki): < 10 nM
IC50 ([3]; Homo sapiens, 72 h): > 1000 nM

COc1cc(NC(=O)Nc2cccc(CNC(=O)OC(CCN(CC(C)C)CC(C)C)c3ccccc3)c2)ccc1-c1cnco1 (stereo not drawn) [Compound 126]
IC50 ([1]; Homo sapiens, 72 h): > 1000 nM
Ki ([2]; read-out: Ki): > 50 nM
IC50 ([3]; Homo sapiens, 72 h): > 1000 nM

CC[C@H](CO)OC(=O)N[C@@H](C)c1cccc(NC(=O)Nc2ccc(C#N)c(OC)c2)c1 [Compound 180]
IC50 ([1]; Homo sapiens, 72 h): 100 to 1000 nM
Ki ([2]; read-out: Ki): 10 to 50 nM
IC50 ([3]; Homo sapiens, 72 h): > 1000 nM

COc1cc(NC(=O)Nc2cccc(CNC(=O)OC3COCC3OCC(=O)OC(C)(C)C)c2)ccc1-c1cnco1 (stereo not drawn) [Compound 70]
IC50 [1]: > 1000 nM
Ki ([2]; read-out: Ki): < 10 nM
IC50 [3]: > 1000 nM

COc1cc(NC(=O)Nc2cccc(CNC(=O)O[C@@H]3C=C[C@H](OC(C)=O)C3)c2)ccc1-c1cnco1 [Compound 78]
IC50 ([1]; Homo sapiens, 72 h): 100 to 1000 nM
Ki ([2]; read-out: Ki): < 10 nM
IC50 ([3]; Homo sapiens, 72 h): 100 to 1000 nM

COc1cc(NC(=O)Nc2cccc(CNC(=O)O[C@H](CN3CCCC3)c3ccccc3)c2)ccc1-c1cnco1 [Compound 98]
IC50 ([1]; Homo sapiens, 72 h): 100 to 1000 nM
Ki ([2]; read-out: Ki): 10 to 50 nM
IC50 ([3]; Homo sapiens, 72 h): 100 to 1000 nM

COc1cc(NC(=O)Nc2cccc(CNC(=O)OC(CCN(CC(C)C)CC3CC3)c3ccccc3)c2)ccc1-c1cnco1 (stereo not drawn) [Compound 127]
IC50 ([1]; Homo sapiens, 72 h): > 1000 nM
Ki ([2]; read-out: Ki): > 50 nM
IC50 ([3]; Homo sapiens, 72 h): > 1000 nM

CC[C@H](CO)OC(=O)N[C@H](C)c1cccc(NC(=O)Nc2ccc(C#N)c(OC)c2)c1 [Compound 179]
IC50 ([1]; Homo sapiens, 72 h): > 1000 nM
Ki ([2]; read-out: Ki): > 50 nM
IC50 ([3]; Homo sapiens, 72 h): > 1000 nM

COc1cc(NC(=O)Nc2cccc(CNC(=O)O[C@H](C)CCC#N)c2)ccc1-c1cnco1 [Compound 47]
IC50 ([1]; Homo sapiens, 72 h): 100 to 1000 nM
Ki ([2]; read-out: Ki): < 10 nM
IC50 ([3]; Homo sapiens, 72 h): 100 to 1000 nM
